This passage reports IC50 results from patent US10640495B2, “Heterocycle derivatives having TrkA inhibitory activity” (Shionogi & Co., Ltd., priority 2015, dated 2020).

Some results are limits rather than exact numbers.

human TrkA, sequence (P04629 440-796): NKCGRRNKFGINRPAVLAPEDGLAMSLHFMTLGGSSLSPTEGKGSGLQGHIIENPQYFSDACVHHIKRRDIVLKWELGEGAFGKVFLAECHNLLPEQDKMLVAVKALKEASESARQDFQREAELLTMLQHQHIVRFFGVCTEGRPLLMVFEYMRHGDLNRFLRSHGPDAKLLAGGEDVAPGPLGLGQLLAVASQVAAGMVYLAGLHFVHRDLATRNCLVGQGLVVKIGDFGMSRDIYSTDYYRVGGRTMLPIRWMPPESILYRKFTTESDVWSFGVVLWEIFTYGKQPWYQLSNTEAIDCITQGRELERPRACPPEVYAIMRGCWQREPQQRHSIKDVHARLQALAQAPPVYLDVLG

The target in the first test is human TrkA (Homo sapiens (Human), UniProt P04629). As to the kind of experiment: Human TrkA inhibition assay (Test Example 2). The class given is biochemical. The conditions noted are these: Table 152, human TrkA inhibition; read-out: IC50_nM. In short, it runs like this:
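Recombinant TrkA (1 nmol/L) was preincubated 15 min at room temperature with compound in HEPES/MgCl2/DTT buffer, then reacted with FL-peptide 27 (1.5 μmol/L) and ATP (500 μmol/L) for 120 min at 37 °C. After EDTA stop, substrate phosphorylation was read by microfluidic mobility shift. IC50 came from logistic regression over 3-fold dilution series.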
`COCCN1C[C@@H](NC(=O)Nc2c(C)c(-c3ccc(C(=O)OC(C)(C)C)cc3)nn2-c2ccccc2)[C@H](c2ccc(F)c(F)c2)O1` (racemic) [Compound I-33]: the IC50 was below 0.1 µM.
The same measure, in the same setting: then `COCCN1C[C@@H](NC(=O)Nc2c(C)c(-c3ccc(OCc4ccccc4)nc3)nn2-c2ccccc2)[C@H](c2ccc(F)c(F)c2)O1` (racemic) [Compound I-27], with below 0.1 µM.

The test is the same for the next values; noted with them: Table 153, human TrkA inhibition; read-out: IC50.
As to `COCCN1C[C@@H](NC(=O)Nc2c(C)c(-c3cnc(OC)c(C(=O)NC4CCS(=O)(=O)CC4)c3)nn2-c2ccccc2)[C@H](c2cnc(OC)c(F)c2)O1` (racemic) [Compound I-104], the IC50 is below 0.1 µM.
On the same count and under the same terms, the value for `COCCN1C[C@@H](NC(=O)Nc2c(C)c(OCC(C)(C)O)nn2-c2ccccc2)[C@H](c2ccc(F)c(F)c2)O1` (racemic) [Compound I-61] was below 0.1 µM.
Turning to `COCCN1C[C@@H](NC(=O)Nc2c(C)c(-c3ccn4c(C)nnc4c3)nn2-c2ccccc2)[C@H](c2ccnc(F)c2)O1` (racemic) [Compound I-155], the IC50 is below 0.1 µM.
On the same count and under the same terms, then `COCCN1C[C@@H](NC(=O)Nc2c(C)c(-c3cnc4cnn(C)c4c3)nn2-c2ccccc2)[C@H](c2ccnc(F)c2)O1` (racemic) [Compound I-63], with below 0.1 µM; and `CCN1CCC(NC(=O)c2cc(-c3nn(-c4ccccc4)c(NC(=O)N[C@@H]4C[C@@H](CCOC)O[C@H]4c4ccc(F)c(F)c4)c3C)ccn2)CC1` (racemic) [Compound I-64], with below 0.1 µM; and `COCCN1C[C@@H](NC(=O)Nc2c(C)c(-c3cnc4c(c3)ncn4C)nn2-c2ccccc2)[C@H](c2ccc(F)c(F)c2)O1` (racemic) [Compound I-72], with below 0.1 µM.
As to `COCCN1C[C@@H](NC(=O)Nc2c(C)c(-c3cnc(N(C(=O)OC(C)(C)C)C4CC4)nc3)nn2-c2ccccc2)[C@H](c2ccnc(F)c2)O1` (racemic) [Compound I-120], the IC50 is below 0.1 µM.
Same read-out and setting: then `COCCN1C[C@@H](NC(=O)Nc2c(C)c(-c3ccnc(N=S(C)(C)=O)c3)nn2-c2ccccc2)[C@H](c2ccc(F)c(F)c2)O1` (racemic) [Compound I-77], with below 0.1 µM.

Still in this test, the particulars now being: Table 154, human TrkA inhibition; read-out: IC50.
As to `COCCN1C[C@@H](NC(=O)Nc2c(C)c(-n3cnc(C)c3)nn2-c2ccccc2)[C@H](c2cnc(F)c(F)c2)O1` (racemic) [Compound I-297], the IC50 is below 0.1 µM.
Still for that read-out and setting: then `COCCN1C[C@@H](NC(=O)Nc2c(C)c(-c3cnc(N4CC(O)C4)nc3)nn2-c2ccccc2)[C@H](c2ccc(F)c(F)c2)O1` [Compound I-209], with below 0.1 µM.
The same measure, in the same setting: then `COCCN1C[C@@H](NC(=O)Nc2c(C)c(-c3cnc4cccnc4c3)nn2-c2ccccc2)[C@H](c2ccnc(F)c2)O1` (racemic) [Compound I-188], with below 0.1 µM; and `COCCN1C[C@@H](NC(=O)Nc2c(C)c(-c3cnc4c(c3)c(=O)n(C)n4C)nn2-c2ccccc2)[C@H](c2ccc(F)c(F)c2)O1` [Compound I-216], with below 0.1 µM; and `COCCN1C[C@@H](NC(=O)Nc2c(C)c(-c3cnc4c(c3)nc(C(=O)NCCO)n4C)nn2-c2ccccc2)[C@H](c2ccnc(F)c2)O1` (racemic) [Compound I-225], with below 0.1 µM.
Still for that read-out and setting: then `COCCN1C[C@@H](NC(=O)Nc2c(C)c(-c3cnc4c(c3)c(=O)on4C)nn2-c2ccccc2)[C@H](c2ccnc(F)c2)O1` (racemic) [Compound I-269], with below 0.1 µM; and `COCCN1C[C@@H](NC(=O)Nc2c(C)c(-c3ccnc(C(=O)OC)c3)nn2-c2ccccc2)[C@H](c2cnc(F)c(F)c2)O1` [Compound I-197], with below 0.1 µM; and `COCC[C@@H]1C[C@@H](NC(=O)Nc2c(C)c(-c3cc(C(=O)NC4CCOCC4)c(=O)n(C)c3)nn2-c2ccccc2)[C@H](c2ccnc(F)c2)O1` [Compound I-272], with below 0.1 µM.
Regarding `COCCN1C[C@@H](NC(=O)Nc2c(C)c(-c3cnc4c(c3)nc(C(N)=O)n4C)nn2-c2ccccc2)[C@H](c2ccc(F)c(F)c2)O1` [Compound I-221], the IC50 was below 0.1 µM.
Still for that read-out and setting: the value for `CNC(=O)c1ncc(-c2nn(-c3ccccc3)c(NC(=O)N[C@@H]3CN(CCOC)O[C@H]3c3ccc(F)c(F)c3)c2C)cc1F` [Compound I-314] was below 0.1 µM; that for `COCCC1C[C@@H](NC(=O)Nc2c(C)c(OCC(C)(C)O)nn2-c2ccccc2)[C@H](c2ccccc2)O1` (stereo partly drawn) [Compound I-295] was 0.1 to 1 µM.

Still in this test, the particulars now being: Table 155, human TrkA inhibition; read-out: IC50.
`CNC(=O)c1ncc(-c2nn(-c3ccccc3)c(NC(=O)N[C@@H]3CN(CCOC)O[C@H]3c3ccnc(F)c3)c2C)cc1CF` (racemic) [Compound I-437]: the IC50 was below 0.1 µM.
On the same count and under the same terms, the value for `COCCN1C[C@@H](NC(=O)Nc2c(C)c(-c3cnc4c(c3)ncn4CC(=O)N3CCN(C)CC3)nn2-c2ccccc2)[C@H](c2ccnc(F)c2)O1` (racemic) [Compound I-400] was below 0.1 µM; that for `COCCN1C[C@@H](NC(=O)Nc2c(C)c(OCc3ccncc3)nn2-c2ccccc2)[C@H](c2ccnc(F)c2)O1` (racemic) [Compound I-456] was below 0.1 µM.
The same measure, in the same setting: then `COCC[C@@H]1C[C@@H](NC(=O)Nc2c(C)c(-c3cnn(C)c3)nn2-c2ccccn2)[C@H](c2ccc(F)c(F)c2)O1` (racemic) [Compound I-448], with 0.1 to 1 µM; and `COCCN1C[C@@H](NC(=O)Nc2c(C)c(-c3cnc(C(=O)NC4CC4)c(OC)c3)nn2-c2ccccc2)[C@H](c2ccnc(F)c2)O1` (racemic) [Compound I-339], with below 0.1 µM.
Regarding `COCCN1C[C@@H](NC(=O)Nc2c(C)c(-c3cnc(N4C[C@H]5CC[C@@H](C4)O5)nc3)nn2-c2ccccc2)[C@H](c2ccnc(F)c2)O1` (racemic) [Compound I-486], the IC50 was below 0.1 µM.
On the same count and under the same terms, then `COCCN1C[C@@H](NC(=O)Nc2c(C)c(-c3cnc(C)nc3)nn2-c2ccccc2)[C@H](c2cc(F)nc(F)c2)O1` [Compound I-361], with below 0.1 µM; and `COCCN1C[C@@H](NC(=O)Nc2c(C)c(-c3cnc(C4(O)COC4)nc3)nn2-c2ccccc2)[C@H](c2ccnc(F)c2)O1` (racemic) [Compound I-360], with below 0.1 µM; and `COCCN1C[C@@H](NC(=O)Nc2c(C)c(-c3cnc(N4CCN(C(=O)OCc5ccccc5)CC4)nc3)nn2-c2ccccc2)[C@H](c2ccc(F)c(F)c2)O1` [Compound I-475], with below 0.1 µM.
The same measure, in the same setting: the value for `COCCN1C[C@@H](NC(=O)Nc2c(C)c(-c3cnc4c(c3)CN(C)CC4)nn2-c2ccccc2)[C@H](c2ccnc(F)c2)O1` (racemic) [Compound I-440] was below 0.1 µM; that for `COCCN1C[C@@H](NC(=O)Nc2c(C)c(-c3cnc4c(cnn4CC(=O)N4CCN(C)CC4)c3)nn2-c2ccccc2)[C@H](c2ccnc(F)c2)O1` (racemic) [Compound I-467] was below 0.1 µM; that for `COCCN1C[C@@H](NC(=O)Nc2c(C)c(-c3cnc(N4CCOCC4)nc3)nn2-c2ccccc2)[C@H](c2ccnc(F)c2)O1` (racemic) [Compound I-324] was below 0.1 µM.

The test is the same for the next values; noted with them: Table 156, human TrkA inhibition; read-out: IC50.
Turning to `COCCN1C[C@@H](NC(=O)Nc2c(C)c(-c3ccc(C)nc3)nn2-c2ccccc2)[C@H](c2ccc(F)c(F)c2)O1` [Compound I-556], the IC50 was below 0.1 µM.
Still for that read-out and setting: then `COCCN1C[C@@H](NC(=O)Nc2c(C)c(-c3cnc4occc4c3)nn2-c2ccccc2)[C@H](c2ccnc(F)c2)O1` (racemic) [Compound I-517], with below 0.1 µM; and `CNC(=O)c1cc(-c2nn(-c3ccccc3)c(NC(=O)N[C@@H]3CN(CC(F)(F)F)O[C@H]3c3ccc(F)c(F)c3)c2C)cnc1OC` (racemic) [Compound I-571], with below 0.1 µM; and `COCCN1C[C@@H](NC(=O)Nc2c(C)c(-c3cnc4c(c3)CCO4)nn2-c2ccccc2)[C@H](c2ccnc(F)c2)O1` (racemic) [Compound I-530], with below 0.1 µM.

The same test, now with this note: Table 157, human TrkA inhibition; read-out: IC50.
Consider `COCCN1C[C@@H](NC(=O)Nc2c(C)c(-c3cnc(N4CC(N5CCOCC5)C4)nc3)nn2-c2ccccc2)[C@H](c2ccnc(F)c2)O1` (racemic) [Compound I-583], for which the IC50 was below 0.1 µM.
Still for that read-out and setting: the value for `COCCN1C[C@@H](NC(=O)Nc2c(C)c(OCC(N)=O)nn2-c2ccccc2)[C@H](c2ccnc(F)c2)O1` (racemic) [Compound I-633] was below 0.1 µM; that for `CCN1C[C@@H](NC(=O)Nc2c(C)c(-c3cnc4c(c3)OCCO4)nn2-c2ccccc2)[C@H](c2ccc(F)c(F)c2)O1` (racemic) [Compound I-626] was below 0.1 µM; that for `CCN1C[C@@H](NC(=O)Nc2c(C)c(-c3ccn4ccnc4c3)nn2-c2ccccc2)[C@H](c2ccc(F)c(F)c2)O1` (racemic) [Compound I-625] was below 0.1 µM.
Still for that read-out and setting: then `COc1ncc(-c2nn(-c3ccccc3)c(NC(=O)N[C@@H]3CN(CCC(F)(F)F)O[C@H]3c3ccc(F)c(F)c3)c2C)cn1` (racemic) [Compound I-621], with above 1 µM.

Staying with this test, now noted: human TrkA 1 nmol/L, ATP 500 μmol/L, 120 min at 37° C.; read-out: IC50 values (TrkA phosphorylation inhibition).
For `COCCN1C[C@@H](NC(=O)Nc2c(C)c(-c3cnc4c(c3)OCC(=O)N4)nn2-c2ccccc2)[C@H](c2ccnc(F)c2)O1` (racemic) [Compound I-279], the IC50 came out at 0.002 µM.
The same measure, in the same setting: the value for `COCCN1C[C@@H](NC(=O)Nc2c(C)c(-c3cnc4[nH]ncc4c3)nn2-c2ccccc2)[C@H](c2ccnc(F)c2)O1` (racemic) [Compound I-299] was 0.0021 µM.
Still for that read-out and setting: the value for `COCCN1C[C@@H](NC(=O)Nc2c(C)c(-c3ccc(-c4nn[nH]n4)nc3)nn2-c2ccccc2)[C@H](c2ccc(F)c(F)c2)O1` (racemic) [Compound I-145] was 0.00087 µM.
The same measure, in the same setting: then `COCCN1C[C@@H](NC(=O)Nc2c(C)c(C3=CCN(C(C)=O)CC3)nn2-c2ccccc2)[C@H](c2ccc(F)c(F)c2)O1` (racemic) [Compound I-31], with 0.00078 µM; and `COCCN1C[C@@H](NC(=O)Nc2c(C)c(-c3cnc(OC)c(CN(C)C)c3)nn2-c2ccccc2)[C@H](c2ccc(F)c(F)c2)O1` [Compound I-639], with 0.00052 µM.
As to `COCCN1C[C@@H](NC(=O)Nc2c(C)c(-c3cnc(N4CC(OC)C4)nc3)nn2-c2ccccc2)[C@H](c2ccnc(F)c2)O1` [Compound I-555], the IC50 is 0.00093 µM.
